# Biological target: T1, human V1a receptor (Homo sapiens, UniProt P37288)
# T1 construct: expressed in transfected cells; host or cells: HEK293 cells, transiently transfected; membranes prepared
# Assay: human V1a receptor binding (3H-Vasopressin SPA, HEK293 membranes)
# Settings: 3H-Vasopressin displacement, membranes of HEK293 cells transiently transfected with human V1a; Ki by Cheng-Prussoff
# Protocol: The human V1a receptor was cloned by RT-PCR from total human liver RNA. The coding sequence was subcloned in an expression vector after sequencing to confirm the identity of the amplified sequence. […] Cell membranes were prepared from HEK293 cells transiently transfected with the expression vector and grown in 20 liter fermenters with the following protocol.
# 50 g of cells are resuspended in 30 ml freshly prepared ice cold Lysis buffer (50 mM HEPES, 1 mM EDTA, 10 mM MgCl2 adjusted to pH=7.4+complete cocktail of protease inhibitor (Roche Diagnostics)). Homogenized with Polytron for 1 min and sonicated on ice for 2×2 minutes at 80% intensity (Vibracell sonicator). The preparation is centrifuged 20 min at 500 g at 4° C., the pellet is discarded and the supernatant centrifuged 1 hour at 43'000 g at 4° C. (19'000 rpm). The pellet is resuspended in 12.5 ml Lysis buffer+12.5 ml Sucrose 20% and homogenized using a Polytron for 1-2 min. The protein concentration is determined by the Bradford method and aliquots are stored at −80° C. until use. For binding studies 60 mg Yttrium silicate SPA beads (Amersham) are mixed with an aliquot of membrane in binding buffer (50 mM Tris, 120 mM NaCl, 5 mM KCl, 2 mM CaCl2, 10 mM MgCl2) for 15 minutes with mixing. 50 ul of bead/membrane mixture is then added to each well of a 96 well plate, followed by 50 ul of 4 nM 3H-Vasopressin (American Radiolabeled Chemicals). For total binding measurement 100 ul of binding buffer are added to the respective wells, for non-specific binding 100 ul of […] cold vasopressin and for compound testing 100 ul of a serial dilution of each compound in 2% DMSO. The plate is incubated 1 h at room temperature, centrifuged 1 min at 1000 g and counted on a Packard Top-Count. Non-specific binding counts are subtracted from each well and data is normalized to the maximum specific binding set at 100%. To calculate an IC 50 the curve is fitted using a non-linear regression model (XLfit) and the Ki is calculated using the Cheng-Prussoff equation.
# T1 sequence (P37288 whole entry): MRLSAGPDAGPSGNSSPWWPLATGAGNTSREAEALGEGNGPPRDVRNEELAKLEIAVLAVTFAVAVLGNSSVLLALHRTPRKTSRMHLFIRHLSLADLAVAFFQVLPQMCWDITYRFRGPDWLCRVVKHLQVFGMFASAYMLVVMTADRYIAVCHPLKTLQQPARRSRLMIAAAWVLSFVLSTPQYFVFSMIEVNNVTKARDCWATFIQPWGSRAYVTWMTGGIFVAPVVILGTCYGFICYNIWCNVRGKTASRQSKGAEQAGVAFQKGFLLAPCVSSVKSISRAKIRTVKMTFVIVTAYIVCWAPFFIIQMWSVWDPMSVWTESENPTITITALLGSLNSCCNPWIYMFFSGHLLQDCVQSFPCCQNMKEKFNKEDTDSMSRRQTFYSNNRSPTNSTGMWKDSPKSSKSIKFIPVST
row,SMILES,Ki [nM]
1,"O=C1Nc2ccccc2C2(CCN(C(=O)c3c[nH]c4cc(Cl)ccc34)CC2)O1 [Example 1, 1′-[(6-Chloro-1H-indol-3-yl)carbonyl]spiro[3,1-benzoxazine-4,4′-piperidin]-2(1H)-one]",32
2,"O=C1CC2(CCN(C(=O)c3c[nH]c4ccccc34)CC2)c2cc(Br)ccc2N1 [Example 2, 6′-Bromo-1-(1H-indol-3-ylcarbonyl)-1′H-spiro[piperidine-4,4′-quinolin]-2′(3′H)-one]",2050
3,"CN(C)CCN1C(=O)OC2(CCN(C(=O)c3c[nH]c4cc(Cl)ccc34)CC2)c2cc(Cl)ccc21 [Example 3, 6-Chloro-1′-[(6-chloro-1H-indol-3-yl)carbonyl]-1-[2-(dimethylamino)ethyl]spiro[3,1-benzoxazine-4,4′-piperidin]-2(1H)-one]",402
4,"O=C1Nc2ccc(Cl)cc2C2(CCN(C(=O)c3c[nH]c4cc(Cl)ccc34)CC2)O1 [Example 4, 6-Chloro-1′-[(6-chloro-1H-indol-3-yl)carbonyl]spiro[3,1-benzoxazine-4,4′-piperidin]-2(1H)-one]",310
5,"O=C1Nc2ccccc2C2(CCN(C(=O)c3cn(-c4cc(F)cc(F)c4)c4cc(Cl)ccc34)CC2)O1 [Example 5, 1′-{[6-Chloro-1-(3,5-difluorophenyl)-1H-indol-3-yl]carbonyl}spiro[3,1-benzoxazine-4,4′-piperidin]-2(1H)-one]",130
6,"O=C1Nc2ccccc2C2(CCN(C(=O)c3cn(C(=O)c4cccc(F)c4)c4cc(Cl)ccc34)CC2)O1 [Example 6, 1′-{[6-Chloro-1-(3-fluorobenzoyl)-1H-indol-3-yl]carbonyl}spiro[3,1-benzoxazine-4,4′-piperidin]-2(1H)-one]",118
7,"O=C1Nc2ccccc2C2(CCN(C(=O)c3cn(C(=O)c4ccccc4F)c4cc(Cl)ccc34)CC2)O1 [Example 7, 1′-{[6-Chloro-1-(2-fluorobenzoyl)-1H-indol-3-yl]carbonyl}spiro[3,1-benzoxazine-4,4′-piperidin]-2(1H)-one]",117
8,"O=C1Nc2ccccc2C2(CCN(C(=O)c3cn(C(=O)c4cccc(F)c4F)c4cc(Cl)ccc34)CC2)O1 [Example 8, 1′-{[6-Chloro-1-(2,3-difluorobenzoyl)-1H-indol-3-yl]carbonyl}spiro[3,1-benzoxazine-4,4′-piperidin]-2(1H)-one]",136
9,"O=C1Nc2ccccc2C2(CCN(C(=O)c3cn(Cc4cc(F)cc(F)c4)c4cc(Cl)ccc34)CC2)O1 [Example 10, 1′-{[6-Chloro-1-(3,5-difluorobenzyl)-1H-indol-3-yl]carbonyl}spiro[3,1-benzoxazine-4,4′-piperidin]-2(1H)-one]",3
10,"O=C1Nc2ccccc2C2(CCN(C(=O)c3cn(Cc4cccc(F)c4)c4cc(Cl)ccc34)CC2)O1 [Example 11, 1′-{[6-Chloro-1-(3-fluorobenzyl)-1H-indol-3-yl]carbonyl}spiro[3,1-benzoxazine-4,4′-piperidin]-2(1H)-one]",5
11,"O=C1Nc2ccccc2C2(CCN(C(=O)c3cn(CC(=O)c4cccc(F)c4)c4cc(Cl)ccc34)CC2)O1 [Example 12, 1′-({6-Chloro-1-[2-(3-fluorophenyl)-2-oxoethyl]-1H-indol-3-yl}carbonyl)spiro[3,1-benzoxazine-4,4′-piperidin]-2(1H)-one]",7
12,"O=C1Nc2ccccc2C2(CCN(C(=O)c3cn(CC(=O)c4ccc(F)c(F)c4)c4cc(Cl)ccc34)CC2)O1 [Example 13, 1′-({6-Chloro-1-[2-(3,4-difluorophenyl)-2-oxoethyl]-1H-indol-3-yl}carbonyl)spiro[3,1-benzoxazine-4,4′-piperidin]-2(1H)-one]",8
13,"O=C1Nc2ccccc2C2(CCN(C(=O)c3cn(CC(=O)N4CCCCC4)c4cc(Cl)ccc34)CC2)O1 [Example 15, 1′-{[6-Chloro-1-(2-oxo-2-piperidin-1-ylethyl)-1H-indol-3-yl]carbonyl}spiro[3,1-benzoxazine-4,4′-piperidin]-2(1H)-one]",7
14,"O=C1Nc2ccccc2C2(CCN(C(=O)c3cn(CC(=O)N4CCOCC4)c4cc(Cl)ccc34)CC2)O1 [Example 16, 1′-{[6-Chloro-1-(2-morpholin-4-yl-2-oxoethyl)-1H-indol-3-yl]carbonyl}spiro[3,1-benzoxazine-4,4′-piperidin]-2(1H)-one]",20
15,"CN(C)C(=O)Cn1cc(C(=O)N2CCC3(CC2)OC(=O)Nc2ccccc23)c2ccc(Cl)cc21 [Example 17, 2-{6-Chloro-3-[(2-oxo-1,2-dihydro-1′H-spiro[3,1-benzoxazine-4,4′-piperidin]-1′-yl)carbonyl]-1H-indol-1-yl}-N,N-dimethylacetamide]",5.7
16,"CCN(CC)C(=O)Cn1cc(C(=O)N2CCC3(CC2)OC(=O)Nc2ccccc23)c2ccc(Cl)cc21 [Example 18, 2-{6-Chloro-3-[(2-oxo-1,2-dihydro-1H-spiro[3,1-benzoxazine-4,4′-piperidin]-1′-yl)carbonyl]-1H-indol-1-yl}-N,N-diethylacetamide]",6
17,"O=C1Nc2ccccc2C2(CCN(C(=O)c3cn(C(=O)N4CCCCC4)c4cc(Cl)ccc34)CC2)O1 [Example 19, 1′-{[6-Chloro-1-(piperidin-1-ylcarbonyl)-1H-indol-3-yl]carbonyl}spiro[3,1-benzoxazine-4,4′-piperidin]-2(1H)-one]",46
18,"CC(C)(C)OC(=O)Cn1cc(C(=O)N2CCC3(CC2)OC(=O)Nc2ccccc23)c2ccc(Cl)cc21 [Example 20, tert-Butyl {6-chloro-3-[(2-oxo-1,2-dihydro-1′H-spiro[3,1-benzoxazine-4,4′-piperidin]-1′-yl)carbonyl]-1H-indol-1-yl}acetate]",10
19,"O=C1Nc2ccccc2C2(CCN(C(=O)c3cn(C(=O)c4cc(F)cc(F)c4)c4cc(Cl)ccc34)CC2)O1 [Example 21, 1′-{[6-Chloro-1-(3,5-difluorobenzoyl)-1H-indol-3-yl]carbonyl}spiro[3,1-benzoxazine-4,4′-piperidin]-2(1H)-one]",88
20,"O=C1Nc2ccccc2C2(CCN(C(=O)c3cn(CC(=O)c4cc(F)cc(F)c4)c4cc(Cl)ccc34)CC2)O1 [Example 22, 1′-({6-Chloro-1-[2-(3,5-difluorophenyl)-2-oxoethyl]-1H-indol-3-yl}carbonyl)spiro[3,1-benzoxazine-4,4′-piperidin]-2(1H)-one]",200
21,"O=C1Nc2ccccc2C2(CCN(C(=O)c3cn(CC(=O)c4ccccc4F)c4cc(Cl)ccc34)CC2)O1 [Example 23, 1′-({6-Chloro-1-[2-(2-fluorophenyl)-2-oxoethyl]-1H-indol-3-yl}carbonyl)spiro[3,1-benzoxazine-4,4′-piperidin]-2(1H)-one]",2
22,"N#CCCn1cc(C(=O)N2CCC3(CC2)OC(=O)Nc2ccccc23)c2ccc(Cl)cc21 [Example 24, 3-{6-Chloro-3-[(2-oxo-1,2-dihydro-1′H-spiro[3,1-benzoxazine-4,4′-piperidin]-1′-yl)carbonyl]-1H-indol-1-yl}propanenitrile]",10
23,"CC(C#N)n1cc(C(=O)N2CCC3(CC2)OC(=O)Nc2ccccc23)c2ccc(Cl)cc21 (centres unmarked) [Example 25, 2-{6-Chloro-3-[(2-oxo-1,2-dihydro-1′H-spiro[3,1-benzoxazine-4,4′-piperidin]-1′-yl)carbonyl]-1H-indol-1-yl}propanenitrile]",28
24,"O=C1Nc2ccccc2C2(CCN(C(=O)c3cn(CC(=O)c4ccccn4)c4cc(Cl)ccc34)CC2)O1 [Example 26, 1′-{[6-Chloro-1-(2-oxo-2-pyridin-2-ylethyl)-1H-indol-3-yl]carbonyl}spiro[3,1-benzoxazine-4,4′-piperidin]-2(1H)-one]",8
25,"Cc1oc(-c2ccccc2)nc1C(=O)Cn1cc(C(=O)N2CCC3(CC2)OC(=O)Nc2ccccc23)c2ccc(Cl)cc21 [Example 27, 1′-({6-Chloro-1-[2-(5-methyl-2-phenyl-1,3-oxazol-4-yl)-2-oxoethyl]-1H-indol-3-yl}carbonyl)spiro[3,1-benzoxazine-4,4′-piperidin]-2(1H)-one]",29
26,"CNC(=O)Cn1cc(C(=O)N2CCC3(CC2)CNC(=O)c2ccccc23)c2ccc(Cl)cc21 [Example 28, 2-{6-chloro-3-[(1-oxo-2,3-dihydro-1H, 1′H-spiro[isoquinoline-4,4′-piperidin]-1′-yl)carbonyl]-1H-indol-1-yl}-N-methylacetamide]",166

# Reference: patent US7351706B2, “Indol-3-yl-carbonyl-spiro-piperidine derivatives” (Hoffmann-La Roche Inc., priority 2006, dated 2008)
